Measured values published in US10494380B2, “Nitrogen-containing tricyclic derivatives having HIV replication inhibitory activity” (priority 2015, dated 2019).
Read-outs that look alike come from different tables or passages of the source.

Experiments:
[1] = system: HIV; assay type: cell-based; settings: EC50 in the presence of human serum (25%) versus without human serum, MT-4 cells
Description: To confirm the influence of human serum on anti-HIV activity as necessary, human serum was added and determined EC50 in this condition. Human serum (100 μL/well) was dispensed into each anti-HIV active substance at a designated concentration dispensed 50 μL each in advance into a 96-well microtiter plate, and the plate was incubate at room temperature for 1 hour. To the serum-free plate, only culture medium (100 μL/well) was dispensed into 96-well microtiter plate. MT-4 cells (3×10^4 cells/well) was infected with 3 μL/well of HIV solution diluted to an appropriate concentration (600 pfu/50 μL) by the required number of wells and incubated at 37° C. for 1 hour. The infected cells were centrifuged at 1200 rpm for 5 minutes, the supernatant was discarded, and the infected cells were dispersed into culture medium for the required number of wells at 50 μL/well. Infected cell suspension was dispensed into a 96-well microtiter plate of which anti-HIV active substance and human serum prepared in advance. The cell mixture was mixed with a plate mixer and cultured in a CO2 incubator for 4 days. The EC50 in the presence of human serum was calculated in the same manner as in Test Example 1 and the ratio of EC50 in the presence of human serum and EC50 in the absence of human serum was calculated as the potency shift value. […]

[2] = system: T125A mutant virus (HIV-1 NL-432 recombinant molecular clone, IN gene); assay: HIV replication inhibition assay against integrase 124/125 mutant virus (Test Example 2); assay type: cell-based
In short: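 MT-4 cells (2.5×10^4 per well) infected with 60 pfu of 293T-derived HIV-1 NL-432 clone carrying integrase 124/125 point mutations, in presence of compound, cultured 4 days at 37 °C. Viability by MTT formazan at 560/690 nm; EC50 = concentration inhibiting 50% of virus-induced cytotoxicity.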

[3] = Human immunodeficiency virus 1, MT4, read-out: EC50 against T125A mutant virus, T125A mutant virus (HIV-1 NL-432 IN gene), MT-4 cells, MTT
[4] = T125A mutant virus (HIV-1 NL-432 IN gene), MT-4 cells, MTT, read-out: EC50 against T125A mutant virus

Structure (SMILES)	Potency shift value [1]	EC50 [2, 3]	EC50 ([2]; read-out: EC50 against T125A mutant virus, T125A mutant virus (HIV-1 NL-432 IN gene), MT-4 cells, MTT)	EC50 [2, 4]
Cc1ccc(-c2c(C(OC(C)(C)C)C(=O)O)c(C#N)c3c4c2cc(C)n4CCN3C)cc1 (stereo not drawn) [Compound I-186]	15	20 nM		
Cc1c([C@H](OC(C)(C)C)C(=O)O)c(-c2ccc(Cl)cc2)c2cc(C)n3c2c1OCCC3 [Compound I-188]	11	14 nM		
Cc1c([C@H](OC(C)(C)C)C(=O)O)c(-c2c(F)cc(F)cc2F)c2cc(C)n3c2c1N(C)CC3 [Compound I-191]	7.4	13 nM		
COc1ccc(N2CCn3c(C)cc4c(-c5ccc(Cl)cc5)c([C@H](OC(C)(C)C)C(=O)O)c(C)c2c43)nc1 [Compound I-192]	11	4.6 nM		
Cc1c([C@H](OC(C)(C)C)C(=O)O)c(-c2ccc(Cl)cc2)c2cc(C)n3c2c1N(c1ncccc1F)CC3 [Compound I-193]	21	2.8 nM		
COc1cccc(N2CCn3c(C)cc4c(-c5ccc(Cl)cc5)c([C@H](OC(C)(C)C)C(=O)O)c(C)c2c43)n1 [Compound I-194]	13	12 nM		
Cc1c([C@H](OC(C)(C)C)C(=O)O)c(-c2ccc(Cl)cc2)c2cc(C)n3c2c1OC(C)C3 (stereo partly drawn) [Compound I-195]	12	15 nM		
Cc1c([C@H](OC(C)(C)C)C(=O)O)c(-c2ccc(Cl)cc2)c2cc(C)n3c2c1OC(C)C3 (stereo partly drawn) [Compound I-196]	11		18 nM	
COCCOC(=O)Nc1cnc(N2CCn3c(C)cc4c(-c5ccc(C)cc5)c([C@H](OC(C)(C)C)C(=O)O)c(C)c2c43)nc1 [Compound I-203]	30			13 nM
Cc1ccc(-c2c([C@H](OC(C)(C)C)C(=O)O)c(C)c3c4c2cc(C)n4CCN3CCOCC(F)F)cc1 [Compound I-206]	9.7			71 nM
CCOCCN1CCn2c(C)cc3c(-c4ccc(C)cc4)c([C@H](OC(C)(C)C)C(=O)O)c(C)c1c32 [Compound I-207]	8.1			19 nM
Cc1ccc(-c2c([C@H](OC(C)(C)C)C(=O)O)c(C)c3c4c2cc(C)n4CCN3CCOC(F)F)cc1 [Compound I-208]	11			24 nM
Cc1ccc(-c2c([C@H](OC(C)(C)C)C(=O)O)c(C)c3c4c2cc(C)n4CCN3CCF)cc1 [Compound I-209]	24			16 nM
Cc1ccc(-c2c([C@H](OC(C)(C)C)C(=O)O)c(C)c3c4c2cc(C)n4CCN3S(=O)(=O)CCO)cc1 [Compound I-210]	5.4			65 nM
Cc1ccc(-c2c([C@H](OC(C)(C)C)C(=O)O)c(C)c3c4c2cc(C)n4CCN3CC2COC2)cc1 [Compound I-211]	7.5			20 nM
Cc1ccc(-c2c([C@H](OC(C)(C)C)C(=O)O)c(C)c3c4c2cc(C)n4CCN3c2ncc(C3=CCN(C)CC3)cn2)cc1 [Compound I-212]	3.9			6.8 nM
Cc1ccc(-c2c([C@H](OC(C)(C)C)C(=O)O)c(C)c3c4c2cc(C)n4CCN3c2cccc(CO)n2)cc1 [Compound I-216]	9.2			20 nM
Cc1ccc(-c2c([C@H](OC(C)(C)C)C(=O)O)c(C)c3c4c2cc(C)n4CCN3c2cccc(CN3CCOCC3)n2)cc1 [Compound I-217]	9.1			39 nM
Cc1c([C@H](OC(C)(C)C)C(=O)O)c(-c2ccc(Cl)cc2)c2cc(C)n3c2c1N(C(=O)Nc1ccccc1N)CC3 [Compound I-218]	5.5			20 nM
Cc1c([C@H](OC(C)(C)C)C(=O)O)c(-c2ccc(Cl)cc2)c2cc(C)n3c2c1N(c1cccc(=O)n1C)CC3 [Compound I-219]	7.6			43 nM
CNCCOc1cnc(N2CCn3c(C)cc4c(-c5ccc(C)cc5)c([C@H](OC(C)(C)C)C(=O)O)c(C)c2c43)nc1 [Compound I-224]	3.3			79 nM
Cc1ccc(-c2c([C@H](OC(C)(C)C)C(=O)O)c(C)c3c4c2cc(C)n4CCN3c2ncc(OCCN(C)S(C)(=O)=O)cn2)cc1 [Compound I-225]	9.7			11 nM
Cc1cc2c(-c3ccc(Cl)cc3)c([C@H](OC(C)(C)C)C(=O)O)c(Cl)c3c2n1CCN3C [Compound I-228]	9.1	2.6 nM		

Structure (SMILES)	Potency shift value [1]	EC50 [2, 3]	EC50 ([2]; read-out: EC50 against T125A mutant virus, T125A mutant virus (HIV-1 NL-432 IN gene), MT-4 cells, MTT)	EC50 [2, 4]
COc1cnc(N2CCn3c(C)cc4c(-c5ccccc5)c([C@H](OC(C)(C)C)C(=O)O)c(C)c2c43)nc1 [Compound I-231]	22	10 nM		
Cc1c([C@H](OC(C)(C)C)C(=O)O)c(-c2ccc(Cl)cc2)c2cc(C)n3c2c1N(C(=O)Nc1ccccc1Br)CC3 [Compound I-232]	8.6	34 nM		
COCCOc1cnc(N2CCn3c(C)cc4c(-c5ccc(Cl)cc5)c([C@H](OC(C)(C)C)C(=O)O)c(C)c2c43)nc1 [Compound I-234]	19	3.6 nM		
Cc1c([C@H](OC(C)(C)C)C(=O)O)c(-c2ccc(Cl)cc2)c2cc(C)n3c2c1N(c1ncc(-c2ccc(F)cc2)cn1)CC3 [Compound I-239]	16	22 nM		
Cc1c([C@H](OC(C)(C)C)C(=O)O)c(-c2ccc(Cl)cc2)c2cc(C)n3c2c1N(c1nc2ccccc2s1)CC3 [Compound I-240]	12	51 nM		
COc1cnc(N2c3c(C)c([C@H](OC(C)(C)C)C(=O)O)c(-c4ccc(C)cc4)c4cc(C)n(c34)C[C@H]2C)nc1 [Compound I-241]	8.4	2.2 nM		
Cc1c([C@H](OC(C)(C)C)C(=O)O)c(-c2ccc(Cl)cc2)c2cc(C)n3c2c1N(c1nc2ccccc2n1C)CC3 [Compound I-242]	11	6.4 nM		
Cc1ccc(-c2c([C@H](OC(C)(C)C)C(=O)O)c(Cl)c3c4c2cc(C)n4CCN3)cc1 [Compound I-247]	7.6	8.3 nM		
Cc1cc(F)c(-c2c([C@H](OC(C)(C)C)C(=O)O)c(C)c3c4c2cc(C)n4CCN3CCN(C)C)c(F)c1 [Compound I-248]	1.5	67 nM		
Cc1ccc(-c2c([C@H](OC(C)(C)C)C(=O)O)c(C)c3c4c2cc(C)n4CCN3c2ncc(C(=O)N(C)C)cn2)cc1 [Compound I-250]	19	9.9 nM		
Cc1ccc(-c2c([C@H](OC(C)(C)C)C(=O)O)c(C)c3c4c2cc(C)n4CCN3c2nc3ccccc3n2C)cc1 [Compound I-251]	9.6	4.2 nM		
Cc1c([C@H](OC(C)(C)C)C(=O)O)c(-c2ccc(Cl)cc2)c2cc(C)n3c2c1N(c1ncc(N2CCCC2)cn1)CC3 [Compound I-252]	23	8.5 nM		
Cc1c([C@H](OC(C)(C)C)C(=O)O)c(-c2ccc(Cl)cc2)c2cc(C)n3c2c1N(c1ncc(OCCCO)cn1)CC3 [Compound I-256]	10	5.6 nM		
Cc1c([C@H](OC(C)(C)C)C(=O)O)c(-c2ccc(Cl)cc2)c2cc(C)n3c2c1N(c1ncc(OCC2(F)COC2)cn1)CC3 [Compound I-259]	15	4.4 nM		
Cc1ccc(-c2c([C@H](OC(C)(C)C)C(=O)O)c(C)c3c4c2cc(C)n4CCN3c2cnc(C)cn2)cc1 [Compound I-264]	26	4.4 nM		
Cc1ccc(-c2c([C@H](OC(C)(C)C)C(=O)O)c(C)c3c4c2cc(C)n4CCN3c2cccc(C(=O)N(C)C)n2)cc1 [Compound I-269]	7.4	29 nM		
COc1cncc(N2CCn3c(C)cc4c(-c5ccc(C)cc5)c([C@H](OC(C)(C)C)C(=O)O)c(C)c2c43)n1 [Compound I-274]	16	14 nM		
COc1cnc(N2CCn3c(C)cc4c(-c5ccc(C)cc5)c([C@H](OC(C)(C)C)C(=O)O)c(C)c2c43)cn1 [Compound I-275]	18	13 nM		
Cc1ccc(-c2c([C@H](OC(C)(C)C)C(=O)O)c(C)c3c4c2cc(C)n4CCN3c2ncc(OC3COC3)cn2)cc1 [Compound I-280]	21	5.3 nM		
Cc1ccc(-c2c([C@H](OC(C)(C)C)C(=O)O)c(C)c3c4c2cc(C)n4CCN3CC(F)F)cc1 [Compound I-281]	23	17 nM		
Cc1ccc(-c2c([C@H](OC(C)(C)C)C(=O)O)c(C)c3c4c2cc(C)n4CCN3c2ncc(OCCO)cn2)cc1 [Compound I-283]	9.5	12 nM		
Cc1ccc(-c2c([C@H](OC(C)(C)C)C(=O)O)c(C)c3c4c2cc(C)n4CCN3c2ncc(OCCCO)cn2)cc1 [Compound I-284]	17	3.6 nM		
